According to US20250215030A1, “STAT MODULATORS AND USES THEREOF” (Recludix Pharma, Inc., priority 2022, published 2025):
Where two headings read alike, the source gives them in different places.

Target: T1, pSTAT3 (pY705-STAT3) (Homo sapiens, UniProt P40763)
T1 construct: host or cells: cryopreserved PBMC
Assay: MSD-pSTAT-PBMC Assay (pSTAT3, IL-6 stimulated)
Format: cell-based
Procedure, shortened: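 Human PBMCs (50,000 cells/well for STAT3, 25,000 for STAT6) treated with compound 3 h, then stimulated 10 min with 10 ng/mL IL-6 or 1 ng/mL IL-4. Lysate pSTAT3 (pY705) or pSTAT6 (pY641) measured by MSD sandwich electrochemiluminescence. Signal minus unstimulated, normalized to DMSO; IC50 by variable-slope nonlinear regression.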

[1] = PBMC, compound 3 hrs, then 10 ng/mL IL-6 for 10 min, MSD pY705-STAT3, read-out: pSTAT3

T1 sequence (P40763 whole entry): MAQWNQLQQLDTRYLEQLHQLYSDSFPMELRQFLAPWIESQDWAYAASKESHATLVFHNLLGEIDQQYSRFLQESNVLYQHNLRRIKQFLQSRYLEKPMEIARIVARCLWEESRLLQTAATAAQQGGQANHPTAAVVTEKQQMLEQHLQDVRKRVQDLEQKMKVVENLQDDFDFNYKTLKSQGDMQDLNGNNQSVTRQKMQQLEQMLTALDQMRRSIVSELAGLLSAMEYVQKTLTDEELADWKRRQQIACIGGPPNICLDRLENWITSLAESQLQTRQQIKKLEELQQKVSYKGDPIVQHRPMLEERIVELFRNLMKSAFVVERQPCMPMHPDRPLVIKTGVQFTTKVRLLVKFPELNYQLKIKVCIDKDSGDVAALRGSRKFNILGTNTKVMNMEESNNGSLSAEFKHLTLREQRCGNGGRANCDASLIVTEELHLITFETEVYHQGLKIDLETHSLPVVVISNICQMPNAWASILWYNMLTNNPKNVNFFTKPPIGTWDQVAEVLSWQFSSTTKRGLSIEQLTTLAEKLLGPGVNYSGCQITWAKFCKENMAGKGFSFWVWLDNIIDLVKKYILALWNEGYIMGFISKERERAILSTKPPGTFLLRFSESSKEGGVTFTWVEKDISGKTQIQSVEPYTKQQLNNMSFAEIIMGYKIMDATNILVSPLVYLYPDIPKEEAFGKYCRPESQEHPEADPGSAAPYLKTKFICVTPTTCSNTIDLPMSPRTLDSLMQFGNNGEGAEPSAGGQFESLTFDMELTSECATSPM

CCCOC(=O)[C@H](C)N[P@@](=O)(Oc1ccccc1)[C@H](F)c1ccc2sc(C(=O)N[C@H]3C[C@H]4C[C@H]4C[C@H]4CC[C@@H](C(=O)N5CC(c6cnccc6N(C)C)C5)N4C3=O)cc2c1 [Compound 398, propyl((R)-((S)-(2-(((3S,6S,7aR,8aS,9aR)-3-(3-(4-(dimethylamino)pyridin-3-yl)azetidine-1-carbonyl)-5-oxodecahydro-1H-cyclopropa[d]pyrrolo[1,2-a]azocin-6-yl)carbamoyl)benzo[b]thiophen-5-yl)fluoromethyl)(phenoxy)phosphoryl)-L-ananinate]
IC50 [1]: < 100 nM

CCCOC(=O)[C@H](C)N[P@@](=O)(Oc1ccccc1)[C@H](F)c1ccc2sc(C(=O)N[C@H]3C[C@H]4C[C@H]4C[C@H]4CC[C@@H](C(=O)N5CC(c6cnccc6N(C)C)C5)N4C3=O)cc2c1 [Compound 399]
IC50 [1]: < 100 nM

CCCOC(=O)[C@H](C)NP(=O)(Oc1ccccc1)C(F)c1ccc2sc(C(=O)N[C@H]3C[C@@H]4C[C@@H]4C[C@H]4CC[C@@H](C(=O)N5CC(c6cncnc6N6CCC6)C5)N4C3=O)cc2c1 (stereo partly drawn) [Compound 412, propyl(((S)-(2-(((3S,6S,7aS,8aR,9aR)-3-(3-(4-(azetidin-1-yl)pyrimidin-5-yl)azetidine-1-carbonyl)-5-oxodecahydro-1H-cyclopropa[d]pyrrolo[1,2-a]azocin-6-yl)carbamoyl)benzo[b]thiophen-5-yl)fluoromethyl)(phenoxy)phosphoryl)-L-alaninate]
IC50: < 100 nM

CCCOC(=O)[C@H](C)NP(=O)(Oc1ccccc1)[C@H](F)c1ccc2sc(C(=O)N[C@H]3C[C@@H]4C[C@@H]4C[C@H]4CC[C@@H](C(=O)N5CC(c6cnccc6N6CCOCC6)C5)N4C3=O)cc2c1 (stereo partly drawn) [Compound 413, propyl(((S)-fluoro(2-(((3S,6S,7aS,8aR,9aR)-3-(3-(4-morpholinopyridin-3-yl)azetidine-1-carbonyl)-5-oxodecahydro-1H-cyclopropa[d]pyrrolo[1,2-a]azocin-6-yl)carbamoyl)benzo[b]thiophen-5-yl)methyl)(phenoxy)phosphoryl)-L-alaninate]
IC50: < 100 nM

CCCOC(=O)[C@H](C)N[P@@](=O)(Oc1ccccc1)[C@@H](F)c1ccc2sc(C(=O)N[C@H]3C[C@@H]4C[C@@H]4C[C@H]4CC[C@@H](C(=O)N5CC(c6cnccc6N(C)C)C5)N4C3=O)cc2c1 [Compound 414, propyl((S)-((R)-(2-(((3S,6S,7aS,8aR,9aR)-3-(3-(4-(dimethylamino)pyridin-3-yl)azetidine-1-carbnyl)-5-oxodecahydro-1H-cyclopropa[d]pyrrolo[1,2-a]azocin-6-yl)carbamoyl)benzo[b]thiophen-5-yl)fluoromethyl)(phenoxy)phosphoryl)-L-alaninate]
IC50 [1]: < 100 nM

CCCOC(=O)[C@H](C)NP(=O)(Oc1ccccc1)[C@H](F)c1ccc2sc(C(=O)N[C@H]3C[C@@H]4C[C@@H]4C[C@H]4CC[C@@H](C(=O)N5CC(c6cnccc6N6CC[C@H]6COC)C5)N4C3=O)cc2c1 (stereo partly drawn) [Compound 416, propyl(((S)-fluoro(2-(((3S,6S,7aS,8aR,9aR)-3-(3-(4-((S)-2-(methoxymethyl)azetidin-1-yl)pyridin-3-yl)azetidine-1-carbonyl)-5-oxodecahydro-1H-cyclopropa[d]pyrrolo[1,2-a]azocin-6-yl)carbamoyl)benzo[b]thiophen-5-yl)methyl)(phenoxy)phosphoryl)-L-alaninate]
IC50: < 100 nM

CCCOC(=O)[C@H](C)N[P@](=O)(Oc1ccccc1)C(F)c1ccc2sc(C(=O)N[C@H]3C[C@@H]4C[C@@H]4C[C@H]4CC[C@@H](C(=O)N5CC(c6cnccc6N(C)C)C5)N4C3=O)cc2c1 (stereo partly drawn) [Compound 418, propyl((R)-((S)-(2-(((3S,6S,7aS,8aR,9aR)-3-(3-(4-(dimethylamino)pyridin-3-yl)azetidine-1-carbonyl)-5-oxodecahydro-1H-cyclopropa[d]pyrrolo[1,2-a]azocin-6-yl)carbamoyl)benzo[b]thiophen-5-yl)fluoromethyl)(phenoxy)phosphoryl)-L-alaninate]
IC50: < 100 nM

CCCOC(=O)[C@H](C)NP(=O)(Oc1ccccc1)C(F)c1ccc2sc(C(=O)N[C@H]3C[C@@H]4C[C@@H]4C[C@H]4CC[C@@H](C(=O)N5CC(c6cnccc6OCC)C5)N4C3=O)cc2c1 (stereo partly drawn) [Compound 423, propyl(((S)-(2-(((3S,6S,7aS,8aR,9aR)-3-(3-(4-ethoxypyridin-3-yl)azetidine-1-carbonyl)-5-oxodecahydro-1H-cyclopropa[d]pyrrolo[1,2-a]azocin-6-yl)carbamoyl)benzo[b]thiophen-5-yl)fluoromethyl)(phenoxy)phosphoryl)-L-alaninate]
IC50: < 100 nM

CCCOC(=O)[C@H](C)NP(=O)(Oc1ccccc1)C(F)c1ccc2sc(C(=O)N[C@H]3C[C@@H]4C[C@@H]4C[C@H]4CC[C@@H](C(=O)N5CC(c6cnccc6N6CCN(C)CC6)C5)N4C3=O)cc2c1 (stereo partly drawn) [Compound 424, propyl(((R)-fluoro(2-(((3S,6S,7aS,8aR,9aR)-3-(3-(4-(4-methylpiperazin-1-yl)pyridin-3-yl)azetidine-1-carbonyl)-5-oxodecahydro-1H-cyclopropa[d]pyrrolo[1,2-a]azocin-6-yl)carbamoyl)benzo[b]thiophen-5-yl)methyl)(phenoxy)phosphoryl)-L-alaninate]
IC50: 100 to 1000 nM

propyl(((2-(((3S,6S,7aS,8aR,9aR)-3-((1R,5R)-2-acetyl-2,6-diazabicyclo[3.2.0]heptane-6-carbonyl)-5-oxodecahydro-1H-cyclopropa[d]pyrrolo[1,2-a]azocin-6-yl)carbamoyl)benzo[b]thiophen-5-yl)fluoromethyl)(phenoxy)phosphoryl)-L-alaninate [Compound 292]
IC50 [1]: < 100 nM

propyl(((2-(((3S,6S,7aS,8aR,9aR)-8a-methyl-5-oxo-3-(3-(pyridin-3-yl)azetidine-1-carbonyl)decahydro-1H-cyclopropa[d]pyrrolo[1,2-a]azocin-6-yl)carbamoyl)benzo[b]thiophen-5-yl)methyl)(phenoxy)phosphoryl)-L-alaninate [Compound 233]
IC50 [1]: < 100 nM

propyl(((2-(((3S,6S,8aR,9aS,9bR)-8a-methyl-5-oxo-3-(3-(pyridin-3-yl)azetidine-1-carbonyl)decahydro-1H-cyclopropa[c]pyrrolo[1,2-a]azocin-6-yl)carbamoyl)benzo[b]thiophen-5-yl)methyl)(phenoxy)phosphoryl)-L-alaninate [Compound 232]
IC50 [1]: < 100 nM
